{
  "source": "paper PMC5933782",
  "about": "“Molecular structures of cdc2-like kinases in complex with a new inhibitor chemotype” (PLoS ONE, 2018)",
  "key": {"[1]": {"biological_target": "CDK1/cyclin B", "assay": "radiometric protein kinase assay", "type": "biochemical, starfish", "conditions": "15 μmol/L ATP"}, "[2]": {"biological_target": "DYRK1B (Homo sapiens, UniProt Q9Y463)", "sequence (Q9Y463 whole entry)": "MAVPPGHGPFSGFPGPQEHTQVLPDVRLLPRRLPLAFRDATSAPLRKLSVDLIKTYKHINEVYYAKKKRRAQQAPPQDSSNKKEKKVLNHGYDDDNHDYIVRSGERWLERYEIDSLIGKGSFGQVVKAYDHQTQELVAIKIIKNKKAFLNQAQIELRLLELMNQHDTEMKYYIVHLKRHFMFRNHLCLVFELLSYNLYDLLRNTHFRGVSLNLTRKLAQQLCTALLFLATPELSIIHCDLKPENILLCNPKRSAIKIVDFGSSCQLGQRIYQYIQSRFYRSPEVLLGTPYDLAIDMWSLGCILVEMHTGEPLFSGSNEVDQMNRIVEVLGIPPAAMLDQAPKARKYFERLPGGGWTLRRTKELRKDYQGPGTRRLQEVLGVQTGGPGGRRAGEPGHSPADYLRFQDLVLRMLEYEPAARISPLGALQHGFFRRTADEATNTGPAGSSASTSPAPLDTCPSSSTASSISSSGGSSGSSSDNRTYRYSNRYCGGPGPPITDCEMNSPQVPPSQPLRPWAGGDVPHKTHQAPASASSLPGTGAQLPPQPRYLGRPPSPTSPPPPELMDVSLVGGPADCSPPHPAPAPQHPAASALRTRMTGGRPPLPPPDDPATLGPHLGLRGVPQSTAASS", "assay": "radiometric protein kinase assay", "type": "biochemical", "conditions": "15 μmol/L ATP; read-out: IC50 DYRK 1B"}, "[3]": {"tested_on": "A498", "assay": "NCI cancer cell line screening", "type": "cell-based", "conditions": "Homo sapiens; A498, Renal Cancer", "description": "(§1) Being the most promising compound in terms of CLK1 inhibitory potency and selectivity, KuWal151 (8c) was tested in the National Cancer Institute cancer cell line screening on 57 tumor cell lines of different tissue origin [45]. With only a few exceptions, KuWal151 inhibited the growth of most cell lines in submicromolar concentrations. In Table 2 the cancer cell line inhibition data is listed with the expression rates of SPF45 and CLK1 as indicated in the Expression Atlas database (https://www.ebi.ac.uk/gxa/home). Apparently the cell lines with high levels of CLK1 encoding RNA are inhibited over average. […] However, the available data are not sufficient to construe a clear relationship between the expression levels of the putative target CLK1 and sensitivity of the cell lines against 8c. The same holds true for SPF45, an important substrate of CLK1 involved in splicing which is found to be overexpressed in many cancer cell lines. […] The lack of a straight relationship between CLK1 and/or SPF45 expression levels on the one hand and sensitivity against the CLK1 inhibitor 8c on the other hand may have various reasons, e.g. different uptake rates of the inhibitor by the cells or alternative intracellular targets. For verification of the results from the NCI screening, which is based on the in situ fixation of cells followed by staining with the protein-binding dye sulforhodamin B [47, 48], 8c was also tested on two cell lines of the NCI panel (HT-29 and MDA-MB-231) in a crystal violet assay."}, "[4]": {"tested_on": "ACHN", "assay": "NCI cancer cell line screening", "type": "cell-based", "conditions": "Homo sapiens, Renal Cancer", "description": "as §1"}, "[5]": {"tested_on": "BT-549", "assay": "NCI cancer cell line screening", "type": "cell-based", "conditions": "Homo sapiens; BT-549, Breast Cancer", "description": "as §1"}, "[6]": {"tested_on": "CCRF-CEM", "assay": "NCI cancer cell line screening", "type": "cell-based", "conditions": "Homo sapiens, Leukemia", "description": "as §1"}, "[7]": {"tested_on": "DU-145", "assay": "NCI cancer cell line screening", "type": "cell-based", "conditions": "Homo sapiens; DU-145, Prostate Cancer", "description": "as §1"}, "[8]": {"tested_on": "HCC-2998", "assay": "NCI cancer cell line screening", "type": "cell-based", "conditions": "Homo sapiens; HCC-2998, Colon Cancer", "description": "as §1"}, "[9]": {"tested_on": "HCT-15", "assay": "NCI cancer cell line screening", "type": "cell-based", "conditions": "Homo sapiens; HCT-15, Colon Cancer", "description": "as §1"}, "[10]": {"tested_on": "HOP-92", "assay": "NCI cancer cell line screening", "type": "cell-based", "conditions": "Homo sapiens; HOP-92, Non-Small Cell Lung Cancer", "description": "as §1"}, "[11]": {"tested_on": "HS 578T", "assay": "NCI cancer cell line screening", "type": "cell-based", "conditions": "Homo sapiens, Breast Cancer", "description": "as §1"}, "[12]": {"tested_on": "HT29", "assay": "NCI cancer cell line screening", "type": "cell-based", "conditions": "Homo sapiens, HT-29; HT29, Colon Cancer", "description": "as §1"}, "[13]": {"tested_on": "M14", "assay": "NCI cancer cell line screening", "type": "cell-based", "conditions": "Homo sapiens; M14, Melanoma", "description": "as §1"}, "[14]": {"tested_on": "MCF7", "assay": "NCI cancer cell line screening", "type": "cell-based", "conditions": "Homo sapiens; MCF7, Breast Cancer", "description": "as §1"}, "[15]": {"tested_on": "MDA-MB-231/ATCC", "assay": "NCI cancer cell line screening", "type": "cell-based", "conditions": "Homo sapiens, Breast Cancer", "description": "as §1"}, "[16]": {"tested_on": "MDA-MB-435", "assay": "NCI cancer cell line screening", "type": "cell-based", "conditions": "Homo sapiens", "description": "as §1"}, "[17]": {"tested_on": "MDA-MB-468", "assay": "NCI cancer cell line screening", "type": "cell-based", "conditions": "Homo sapiens; MDA-MB-468, Breast Cancer", "description": "as §1"}, "[18]": {"tested_on": "NCI-H23", "assay": "NCI cancer cell line screening", "type": "cell-based", "conditions": "Homo sapiens; NCI-H23, Non-Small Cell Lung Cancer", "description": "as §1"}, "[19]": {"tested_on": "NCI-H322M", "assay": "NCI cancer cell line screening", "type": "cell-based", "conditions": "Homo sapiens, Non-Small Cell Lung Cancer", "description": "as §1"}, "[20]": {"tested_on": "NCI-H460", "assay": "NCI cancer cell line screening", "type": "cell-based", "conditions": "Homo sapiens; NCI-H460, Non-Small Cell Lung Cancer", "description": "as §1"}, "[21]": {"tested_on": "OVCAR-3", "assay": "NCI cancer cell line screening", "type": "cell-based", "conditions": "Homo sapiens; OVCAR-3, Ovarian Cancer", "description": "as §1"}, "[22]": {"tested_on": "OVCAR-4", "assay": "NCI cancer cell line screening", "type": "cell-based", "conditions": "Homo sapiens; OVCAR-4, Ovarian Cancer", "description": "as §1"}, "[23]": {"tested_on": "PC-3", "assay": "NCI cancer cell line screening", "type": "cell-based", "conditions": "Homo sapiens; PC-3, Prostate Cancer", "description": "as §1"}, "[24]": {"tested_on": "SF-268", "assay": "NCI cancer cell line screening", "type": "cell-based", "conditions": "Homo sapiens; SF-268, CNS Cancer", "description": "as §1"}, "[25]": {"tested_on": "SF-295", "assay": "NCI cancer cell line screening", "type": "cell-based", "conditions": "Homo sapiens; SF-295, CNS Cancer", "description": "as §1"}, "[26]": {"tested_on": "SK-MEL-5", "assay": "NCI cancer cell line screening", "type": "cell-based", "conditions": "Homo sapiens; SK-MEL-5, Melanoma", "description": "as §1"}, "[27]": {"tested_on": "SK-OV-3", "assay": "NCI cancer cell line screening", "type": "cell-based", "conditions": "Homo sapiens; SK-OV-3, Ovarian Cancer", "description": "as §1"}, "[28]": {"tested_on": "SN12C", "assay": "NCI cancer cell line screening", "type": "cell-based", "conditions": "Homo sapiens, Renal Cancer", "description": "as §1"}, "[29]": {"tested_on": "SNB-19", "assay": "NCI cancer cell line screening", "type": "cell-based", "conditions": "Homo sapiens; SNB-19, CNS Cancer", "description": "as §1"}, "[30]": {"tested_on": "SNB-75", "assay": "NCI cancer cell line screening", "type": "cell-based", "conditions": "Homo sapiens; SNB-75, CNS Cancer", "description": "as §1"}, "[31]": {"tested_on": "T-47D", "assay": "NCI cancer cell line screening", "type": "cell-based", "conditions": "Homo sapiens, T47D, Breast Cancer", "description": "as §1"}, "[32]": {"tested_on": "U251", "assay": "NCI cancer cell line screening", "type": "cell-based", "conditions": "Homo sapiens, U-251; U251, CNS Cancer", "description": "as §1"}, "[33]": {"tested_on": "UACC-62", "assay": "NCI cancer cell line screening", "type": "cell-based", "conditions": "Homo sapiens; UACC-62, Melanoma", "description": "as §1"}, "[34]": {"tested_on": "UO-31", "assay": "NCI cancer cell line screening", "type": "cell-based", "conditions": "Homo sapiens; UO-31, Renal Cancer", "description": "as §1"}},
  "data": [
    {"smiles": "O=C1NCc2ccc3c(-c4cccc(Cl)c4)c[nH]c3c21", "note": "[8c, 3-(3-Chlorophenyl)-6,7-dihydropyrrolo[3,4-g]indol-8(1H)-one]", "values": [
      {"measurement": "IC50", "setting": "[1]", "result": "> 10000", "unit": "nM"},
      {"measurement": "IC50", "setting": "[2]", "result": "> 10000", "unit": "nM"},
      {"measurement": "GI50", "setting": "[3]", "result": 166, "unit": "nM"},
      {"measurement": "GI50", "setting": "[4]", "result": 372, "unit": "nM"},
      {"measurement": "GI50", "setting": "[5]", "result": 204, "unit": "nM"},
      {"measurement": "GI50", "setting": "[6]", "result": 178, "unit": "nM"},
      {"measurement": "GI50", "setting": "[7]", "result": 316, "unit": "nM"},
      {"measurement": "GI50", "setting": "[8]", "result": 912, "unit": "nM"},
      {"measurement": "GI50", "setting": "[9]", "result": 178, "unit": "nM"},
      {"measurement": "GI50", "setting": "[10]", "result": 5620, "unit": "nM"},
      {"measurement": "GI50", "setting": "[11]", "result": 204, "unit": "nM"},
      {"measurement": "GI50", "setting": "[12]", "result": 174, "unit": "nM"},
      {"measurement": "GI50", "setting": "[13]", "result": 132, "unit": "nM"},
      {"measurement": "GI50", "setting": "[14]", "result": 174, "unit": "nM"},
      {"measurement": "GI50", "setting": "[15]", "result": 1380, "unit": "nM"},
      {"measurement": "GI50", "setting": "[16]; MDA-MB-435, MDA-MB-435, Melanoma", "result": 72.4, "unit": "nM"},
      {"measurement": "GI50", "setting": "[16]; MDA-MB-435, MDA-MB-435, as quoted in text", "result": 72, "unit": "nM"},
      {"measurement": "GI50", "setting": "[17]", "result": 234, "unit": "nM"},
      {"measurement": "GI50", "setting": "[18]", "result": 525, "unit": "nM"},
      {"measurement": "GI50", "setting": "[19]", "result": 2390, "unit": "nM"},
      {"measurement": "GI50", "setting": "[20]", "result": 209, "unit": "nM"},
      {"measurement": "GI50", "setting": "[21]", "result": 191, "unit": "nM"},
      {"measurement": "GI50", "setting": "[22]", "result": 912, "unit": "nM"},
      {"measurement": "GI50", "setting": "[23]", "result": 339, "unit": "nM"},
      {"measurement": "GI50", "setting": "[24]", "result": 437, "unit": "nM"},
      {"measurement": "GI50", "setting": "[25]", "result": 224, "unit": "nM"},
      {"measurement": "GI50", "setting": "[26]", "result": 407, "unit": "nM"},
      {"measurement": "GI50", "setting": "[27]", "result": 275, "unit": "nM"},
      {"measurement": "GI50", "setting": "[28]", "result": 331, "unit": "nM"},
      {"measurement": "GI50", "setting": "[29]", "result": 389, "unit": "nM"},
      {"measurement": "GI50", "setting": "[30]", "result": 151, "unit": "nM"},
      {"measurement": "GI50", "setting": "[31]", "result": 309, "unit": "nM"},
      {"measurement": "GI50", "setting": "[32]", "result": 263, "unit": "nM"},
      {"measurement": "GI50", "setting": "[33]", "result": 275, "unit": "nM"},
      {"measurement": "GI50", "setting": "[34]", "result": 832, "unit": "nM"}
    ]}
  ]
}
